Patent US20240025863A1, “SOS1 PROTEIN DEGRADERS, PHARMACEUTICAL COMPOSITIONS THEREOF, AND THEIR THERAPEUTIC APPLICATIONS” (BioTheryX, Inc., priority 2020, published 2024)

Experiments:
Assay type in all cases: cell-based
[1] = tested on: SW48 cells (wt); experiment: Cell viability assay (CellTiter-Glo), SW48 cells; details: Homo sapiens, 72 h; SW48 cells, 3 days incubation, CellTiter-Glo luminescence; read-out: Inhibition of Cancerous Cells IC50 SW48 (wt)
Protocol: (§1) H358, H23, SW48, and AsPC-1 cells were cultured in RPMI 1640 media supplemented with 10% fetal bovine serum, streptomycin, and penicillin. Lovo and SW480 cells were cultured in DMEM media supplemented with 10% fetal bovine serum, streptomycin, and penicillin. The cell lines were plated in their respective medium supplemented with 2.5% fetal bovine serum, streptomycin, and penicillin. All cell lines were plated in white walled 96-well plates at 2,000 cells/well or 384-well plates at 500 cells/well, except Lovo, which were plated at 4,000 or 1,000 cells/well, respectively. The cells were incubated in DMSO (control) or a compound for 3 days at 37° C. under 5% CO2. A CELLTITER-GLO® reagent (100 μL) was then added to each well. After a 10 min incubation with shaking, luminescence was measured using an ENVISION® multimode plate reader.

[2] = tested on: SW480 cells (G12V); experiment: Cell viability assay (CellTiter-Glo), SW480 cells; details: Homo sapiens, 72 h; SW480 cells, 3 days incubation, CellTiter-Glo luminescence; read-out: Inhibition of Cancerous Cells IC50 SW480 (G12V)
Protocol: as §1

[3] = tested on: H358 cells (G12C); experiment: Cell viability assay (CellTiter-Glo), H358 cells; details: Homo sapiens, NCI-H358, 72 h; H358 cells, 3 days incubation, CellTiter-Glo luminescence; read-out: Inhibition of Cancerous Cells IC50 H358 (G12C)
Protocol: as §1

[4] = tested on: Lovo cells (G13D); experiment: Cell viability assay (CellTiter-Glo), Lovo cells; details: Homo sapiens, 72 h; Lovo cells, 3 days incubation, CellTiter-Glo luminescence; read-out: Inhibition of Cancerous Cells IC50 Lovo (G13D)
Protocol: as §1

Row | Structure (SMILES) | IC50 [1] [nM] | IC50 [2] [nM] | IC50 [3] [nM] | IC50 [4] [nM]
1 | COc1cc2c(N[C@H](C)c3cccc(Br)c3)nc(C)nc2cc1OCCCCCCCCC(=O)NCc1cccc2c1CN(C1CCC(=O)NC1=O)C2=O (stereo partly drawn) [Compound A6, 9-((4-(((R)-1-(3-bromophenyl)ethyl)amino)-6-methoxy-2-methylquinazolin-7-yl)oxy)-N-((2-(2,6-dioxopiperidin-3-yl)-1-oxoisoindolin-4-yl)methyl)nonanamide] | > 10000 | 8300 | 9900 | 4900
2 | COc1cc2c(N[C@H](C)c3cccc(Br)c3)nc(C)nc2cc1OCCCCCCCC(=O)NCc1cccc2c1CN(C1CCC(=O)NC1=O)C2=O (stereo partly drawn) [Compound A7, 8-((4-(((R)-1-(3-Bromophenyl)ethyl)amino)-6-methoxy-2-methylquinazolin-7-yl)oxy)-N-((2-(2,6-dioxopiperidin-3-yl)-1-oxoisoindolin-4-yl)methyl)octanamide] | 5000 | 6400 | 5400 | 3500
3 | COc1cc2c(N[C@H](C)c3cccc(Br)c3)nc(C)nc2cc1OCCCCCCCC(=O)NCc1ccc2c(c1)CN(C1CCC(=O)NC1=O)C2=O (stereo partly drawn) [Compound A8, 8-((4-(((R)-1-(3-Bromophenyl)ethyl)amino)-6-methoxy-2-methylquinazolin-7-yl)oxy)-N-((2-(2,6-dioxopiperidin-3-yl)-1-oxoisoindolin-5-yl)methyl)octanamide] | 400 | 2100 | 1600 | 970
4 | COc1cc2c(N[C@H](C)c3cccc(Br)c3)nc(C)nc2cc1OCCCCCCCCC(=O)NCc1ccc2c(c1)CN(C1CCC(=O)NC1=O)C2=O (stereo partly drawn) [Compound A9, 9-((4-(((R)-1-(3-Bromophenyl)ethyl)amino)-6-methoxy-2-methylquinazolin-7-yl)oxy)-N-((2-(2,6-dioxopiperidin-3-yl)-1-oxoisoindolin-5-yl)methyl)nonanamide] | 22 | 1200 | 820 | 47
5 | COc1cc2c(N[C@H](C)c3cccc(Br)c3)nc(C)nc2cc1OCCCCCN1CCC(c2cc(F)cc3c2CN(C2CCC(=O)NC2=O)C3=O)CC1 (stereo partly drawn) [Compound A11, 3-(4-(1-(5-((4-(((R)-1-(3-Bromophenyl)ethyl)amino)-6-methoxy-2-methyl-quinazolin-7-yl)oxy)pentyl)piperidin-4-yl)-6-fluoro-1-oxoisoindolin-2-yl)piperidine-2,6-dione] | 510 | 560 | 1600 | 410
6 | COc1cc2c(N[C@H](C)c3cccc(Br)c3)nc(C)nc2cc1OCCCCN1CCN(C(=O)COc2cc(F)cc3c2CN(C2CCC(=O)NC2=O)C3=O)CC1 (stereo partly drawn) [Compound A13, 3-(4-(2-(4-(4-((4-(((R)-1-(3-Bromophenyl)ethyl)amino)-6-methoxy-2-methyl-quinazolin-7-yl)oxy)butyl)piperazin-1-yl)-2-oxoethoxy)-6-fluoro-1-oxoisoindolin-2-yl)-piperidine-2,6-dione] | 5900 | 6600 | 7400 | 9800

Now from value to molecule:

Row | IC50 [1] [nM] | IC50 [2] [nM] | IC50 [3] [nM] | IC50 [4] [nM] | Structure (SMILES)
7 | 3100 | 5000 | 4500 | 2800 | COc1cc2c(N[C@H](C)c3cccc(Br)c3)nc(C)nc2cc1OCCCCCN1CCN(C(=O)COc2cc(F)cc3c2CN(C2CCC(=O)NC2=O)C3=O)CC1 (stereo partly drawn) [Compound A14, 3-(4-(2-(4-(5-((4-(((R)-1-(3-Bromophenyl)ethyl)amino)-6-methoxy-2-methyl-quinazolin-7-yl)oxy)pentyl)piperazin-1-yl)-2-oxoethoxy)-6-fluoro-1-oxoisoindolin-2-yl)-piperidine-2,6-dione]
8 | 410 | 370 | 550 | 260 | CNCc1ccccc1-c1csc([C@@H](C)Nc2nc(C)nc3cc(OCCCCCCCN4CCC(c5cc(F)cc6c5CN(C5CCC(=O)NC5=O)C6=O)CC4)c(OC)cc23)c1 (stereo partly drawn) [Compound A15, 3-(6-Fluoro-4-(1-(7-((6-methoxy-2-methyl-4-(((R)-1-(4-(2-((methylamino)-methyl)phenyl)thiophen-2-yl)ethyl)amino)quinazolin-7-yl)oxy)heptyl)piperidin-4-yl)-1-oxoisoindolin-2-yl)piperidine-2,6-dione]
9 | 340 | 350 | 430 | 230 | CNCc1ccccc1-c1csc([C@H](C)Nc2nc(C)nc3cc(OCCCCCCCN4CCC(c5cc(F)cc6c5CN(C5CCC(=O)NC5=O)C6=O)CC4)c(OC)cc23)c1 (stereo partly drawn) [Compound A16, 3-(6-Fluoro-4-(1-(7-((6-methoxy-2-methyl-4-(((S)-1-(4-(2-((methylamino)-methyl)phenyl)thiophen-2-yl)ethyl)amino)quinazolin-7-yl)oxy)heptyl)piperidin-4-yl)-1-oxoisoindolin-2-yl)piperidine-2,6-dione]
10 | 1100 | 950 | 1400 | 760 | COc1cc2c(N[C@H](C)c3cccc(Br)c3)nc(C)nc2cc1C1CCN(CCCCCN2CCC(c3cc(F)cc4c3CN(C3CCC(=O)NC3=O)C4=O)CC2)CC1 (stereo partly drawn) [Compound A17, 3-(4-(1-(5-(4-(4-(((R)-1-(3-Bromophenyl)ethyl)amino)-6-methoxy-2-methyl-quinazolin-7-yl)piperidin-1-yl)pentyl)piperidin-4-yl)-6-fluoro-1-oxoisoindolin-2-yl)piperidine-2,6-dione]
11 | 810 | 1200 | 830 | 950 | COc1cc2c(N[C@H](C)c3cccc(Br)c3)nc(C)nc2c(CCCCCCCN2CCC(c3cc(F)cc4c3CN(C3CCC(=O)NC3=O)C4=O)CC2)c1OC (stereo partly drawn) [Compound A20, 3-(4-(1-(7-(4-(((R)-1-(3-Bromophenyl)ethyl)amino)-6,7-dimethoxy-2-methyl-quinazolin-8-yl)heptyl)piperidin-4-yl)-6-fluoro-1-oxoisoindolin-2-yl)piperidine-2,6-dione]
12 | 430 | 430 | 1100 | 380 | COc1cc2c(N[C@H](C)c3cccc(Br)c3)nc(C)nc2cc1OCCCCCN1CCC(c2cc3c(cc2F)C(=O)N(C2CCC(=O)NC2=O)C3)CC1 (stereo partly drawn) [Compound A21, 3-(5-(1-(5-((4-(((R)-1-(3-Bromophenyl)ethyl)amino)-6-methoxy-2-methyl-quinazolin-7-yl)oxy)pentyl)piperidin-4-yl)-6-fluoro-1-oxoisoindolin-2-yl)piperidine-2,6-dione]
13 | 300 | 290 | 760 | 330 | COc1cc2c(N[C@H](C)c3cccc(Br)c3)nc(C)nc2cc1OCCCCCCCCCN1CCC(c2cc3c(cc2F)C(=O)N(C2CCC(=O)NC2=O)C3)CC1 (stereo partly drawn) [Compound A23, 3-(5-(1-(9-((4-(((R)-1-(3-Bromophenyl)ethyl)amino)-6-methoxy-2-methyl-quinazolin-7-yl)oxy)nonyl)piperidin-4-yl)-6-fluoro-1-oxoisoindolin-2-yl)piperidine-2,6-dione]
14 | 1300 | 550 | 1200 | 400 | COc1cc2c(N[C@H](C)c3cccc(Br)c3)nc(C)nc2cc1OCCCCCCCCCCCN1CCC(c2cc3c(cc2F)C(=O)N(C2CCC(=O)NC2=O)C3)CC1 (stereo partly drawn) [Compound A24, 3-(5-(1-(11-((4-(((R)-1-(3-Bromophenyl)ethyl)amino)-6-methoxy-2-methyl-quinazolin-7-yl)oxy)undecyl)piperidin-4-yl)-6-fluoro-1-oxoisoindolin-2-yl)piperidine-2,6-dione]
